What is called Kd is the equilibrium constant for the complex coming apart.

These results are taken from ChEMBL document CHEMBL1122454, “Piperazinylimidazo[1,2-a]pyrazines with selective affinity for in vitro alpha-adrenergic receptor subtypes” (J Med Chem, 1983).

For one assay, the species on record is Bos taurus. Description: Relative affinity for alpha-1 and alpha-2 adrenergic receptors. On the set-up: reference not given here.
Assay [1] can be described thus: Displacement of [3H]prazosin from alpha-1-adrenergic receptor of calf neocortical membrane. On the set-up: species or system Bos taurus. On the technique in general: Loss of bound radioactivity is the signal in a displacement assay; it reports binding, not function.
The nature of assay [2]: Displacement of [3H]clonidine from alpha-2-adrenergic receptor of calf neocortical membrane. Also noted: species or system Bos taurus.

With `Clc1cn2c(Cl)cnc2c(N2CCNCC2)n1`, the Ratio in the assay listed under Bos taurus was determined as 0.4. For the same compound, the Kd in assay [1] (read-out: Kd) came out at 410 nM; in assay [2], 1000 nM.
With `c1cn2c(N3CCNCC3)cncc2n1`, in the assay listed under Bos taurus, the Ratio worked out at 1.8. Also, the Kd in assay [1] (read-out: Kd) is 51000 nM; in assay [2], 28100 nM.
For `Clc1cnc2c(N3CCNCC3)nccn12` the same measures were 9.6, 2780 nM and 290 nM.
For `Clc1cncc(N2CCNCC2)n1` [MK-212], in the assay filed under Bos taurus, the Ratio came to 16. Also, the results for the Kd in assay [1] (read-out: Kd) and in assay [2] were 2400 nM and 150 nM, respectively.
The matching figures for `Cc1cnc2c(N3CCNCC3)nc(Cl)cn12`: 0.64, 160 nM and 250 nM.
Turning to `c1ccc2c(c1)N=C(N1CCNCC1)C1=NCCN12`, in the assay filed under Bos taurus, the Ratio was 0.72. Moreover, the Kd in assay [1] (read-out: Kd) was 1300 nM; in assay [2] it was 1800 nM.
In the case of `c1ccc(-c2cn3ccnc3c(N3CCNCC3)n2)cc1`, in the assay listed under Bos taurus, the Ratio was found to be 0.2. The dissociation constant (Kd) was 360 nM in assay [1] (read-out: Kd) and 1800 nM in assay [2].
Take `CN1CCN2c3ccccc3Cc3ccccc3C2C1` (configuration not stated) [MIANSERIN]: in the assay filed under Bos taurus, the Ratio was determined as 2.3. For the same compound, the values for the Kd in assay [1] and in assay [2] were 43 nM and 19 nM, respectively.
`Clc1cn2c3c(nc2c(N2CCNCC2)n1)CCCC3`: the Ratio in the assay filed under Bos taurus stood at 0.13. Also, the Kd in assay [1] (read-out: Kd) worked out at 200 nM; in assay [2], 1500 nM.
`c1cn2ccnc2c(N2CCNCC2)n1`: the Ratio in the assay filed under Bos taurus is 160. Besides, the equilibrium dissociation constant (Kd) in assay [1] (read-out: Kd) was 3100 nM; in assay [2] it was 19 nM.
For `Clc1cnc2cnc(N3CCNCC3)cn12`, in the assay listed under Bos taurus, the Ratio was determined as 0.36. Besides, the dissociation constant (Kd) turned out to be 6800 nM in assay [1] (read-out: Kd) and 18900 nM in assay [2].
The matching figures for `CN1CCN(c2nc(Cl)cn3ccnc23)CC1`: 2.6, 380 nM and 144 nM.
For `ClC1=CN2CCN=C2C(N2CCNCC2)=N1` the same measures were 1.9, 3000 nM and 1600 nM.
The matching figures for `Clc1cn2ccnc2c(N2CCNCC2)n1`: 2.8, 250 nM and 88 nM.
